Reference: patent US20120288533A1, “PROTEIN-POLYSACCHARIDE CONJUGATES AND USE FOR ENCAPSULATING NUTRACEUTICALS FOR CLEAR BEVERAGE APPLICATIONS” (Technion Research and Development Foundation Ltd., priority 2011, published 2012)

Columns and labels:
[1] = Particle size distribution by DLS, RPH / RPH-MD samples with and without CLA or VD, with and without homogenization; format: physicochemical; details: 0.5% ethanol
Method: The conjugate samples were characterized as follows. Two mg/ml (on a protein base) solutions were prepared from the dry heated samples of RPH with and without MD and compared to the unheated control. The RPH-MD powder was dissolved in a pH 7 PBS and stirred overnight for complete hydration. The samples were filtered through 0.45 μm syringe filters (polyvinylidene fluoride, Durapore filter (Millipore, Carrigtwohill, Co. Cork, Ireland).
Additionally, the HN RPH-MD co-assembled particles were analyzed at different concentrations of the VD or CLA.
The dispersion of VD with and without RPH-MD was homogenized by Micro DeBee (Bee International Inc. South Easton Mass., USA) ultra-high pressure homogenizer: process pressure: 20-25 kpsi, Orifice diameter: 0.1 mm. The sample composition was 0.1% protein, 0.5% ethanol, VD concentration 0.02 mg/ml, buffer PBS pH 7. The sample volume subjected to homogenization was 25 ml. The influence of the homogenization process on particles size was evaluated by DLS measurements performed 2 hr after the homogenization.

[2] = CLA protection under acidic conditions (pH 3, 4° C.) with RPH-MD, RP-HPLC; format: physicochemical; details: CLA 0.09 mg/ml, 0.5% ethanol, 1% protein
Method: (§1) The protection conferred by the RPH-MD against HN deterioration with time was evaluated. Different shelf life conditions of temperature 4° C. or 23° C. and pH, neutral or acidic, were tested. Neutral pH conditions were obtained by a pH7 PBS. Acidic conditions for CLA were obtained by a pH 3 citric buffer. Acidic conditions (pH 2.5) for VD were obtained by addition of HCl.
(§2) Following the incubation of HN co-assembled samples under the above shelf life conditions, HN extraction was carried out. Then the HN concentration in the samples was quantified using reversed phase HPLC(RP-HPLC), 4.6×100 mm C18-C2 column, on an Akta basic HPLC system equipped with a 3 simultaneous wavelengths UV detector (GE Healthcare, Waukesha, Wis., USA). The volume of the injection loop was 100 μl, and the operation temperature was 24° C.
(§3) The concentration of the vitamin D was 0.02 mg/ml, a high dosage intended for simulating beverage concentrates, which are later diluted during bottling, but must be colloidally and chemically stable. […]
(§4) To extract CLA, isopropanol (0.5 ml) was added to 0.5 ml sample. […] The separation of CLA was performed with a mobile phase of acetonitrile/water/acetic acid (70/30/0.12, v/v/v) at a flow rate of 1.5 ml/min and CLA was detected at 234 nm, which was found optimal in a spectrum scan (not shown).

[3] = Simulated shelf life of CLA at RT in pH 7 PBS with RPH-MD; format: physicochemical; details: after 14 days, neutral pH (pH 7 PBS), CLA 0.09 mg/ml, 0.5% ethanol, 1% protein
Method: as §1, §2, §3, §4

[4] = Protection of VD against acidic pH treatment (pH 2.5, 2 hr, RT) with RPH-MD, RP-HPLC; format: physicochemical; details: pH 2.5 for 2 hr at RT; initial VD 0.02 mg/ml, 0.5% ethanol, 0.1% w/w protein
Method: as §1, §2, §3
(§5) Vitamin D extraction and HPLC quantification was based on Kazmi et al^57. […] Operating conditions were: ambient temperature (24±1° C.); mobile phase was methanol: acetonitrile: water (49.5:49.5:1 v/v); flow rate was 0.3 ml/min; and the absorbance was measured at 254 nm and 228 nm.

[5] = Shelf life of VD at RT and 4° C. in pH 7 PBS with RPH-MD; format: physicochemical; details: after 22 days of simulated shelf life at neutral pH and 4° C.; VD 0.02 mg/ml, 0.5% ethanol, 0.1% protein
Method: as §1, §2, §3, §5

[6] = Simulated gastric digestion using Nile red (NR adsorption to glass, with and without pepsin); format: in vitro ADME; details: pepsin:CN mass ratio 1:20, pH 2.5, 2 hrs at 37° C.
Method: NR stock solution in ethanol was prepared at a concentration of 0.16 mg/ml=502.6 μM. NR was added during vortexing to the conjugate, mixture or buffer solution, at a concentration of 1.3 μM, to minimize inner filtering effect in fluorescence measurements.
Free NR in aqueous solution adsorbs to the glass walls, which may serve as a convenient way to study its release behavior from nanocapsules. To examine whether NR adsorbs to glass when in water, NR was added to 1 ml of water in a glass vial to a final concentration of 1.3 μM. The vial was left for 2 hrs, then the water was transferred to a new glass vial, and 1 ml of acetone was added to the new vial. At the same time 2 ml of water:acetone (1:1 vol/vol) solution was added to the first vial. After 1 hr both solutions were read for florescence intensity at ex:570, em:645 which is the intensity peak at water:acetone 1:1. Concentration was calculated from the intensity using a NR in water: acetone (1:1) calibration curve.
Then pepsin was added to some of the samples at a concentration of 0.15 mg/ml, in order to reach pepsin: CN mass ratio of 1:20 according to the method by Mandalari et al.^79. […] After 1 hr the acetone: water solution with NR which had adsorbed to the glass was read for fluorescence intensity (ex:570, em:645). NR fluorescence was measured with time to validate that no bleaching occurred during the procedure (data not shown).

Q: Which “CLA particle size by DLS” value ([1]; CLA in PBS pH 7 or 1% protein solutions, RPH-MD value at CLA 0.05-0.015 μg/ml) does the source give for conjugated linoleic acid [CLA] here?
A: a few hundred

Q: What about the “residual percentage of CLA” value ([2]; after 1 day at pH 3.0 and 4° C.) of the same compound?
A: about 20%

Q: And the “residual percentage of CLA” value ([2]; after 4 days at pH 3.0 and 4° C.)?
A: ~0%

Q: What about the “residual percentage of CLA” value [3] of the same compound?
A: 0%

Q: What does the source list for Vitamin D3 [Vitamin D3 (VD3)]?
A: VD particle size fraction by DLS, without homogenization ([1]; 0.1% protein, 0.02 mg/ml VD, pH 7 PBS): 100-200 nm; residual VD [4]: 50%; residual VD [5]: 28%

Q: With `CCN(CC)c1ccc2nc3c4ccccc4c(=O)cc-3oc2c1` [Nile Red (NR), Nile Red] as the compound, how does the “effect of digestion with pepsin on binding of NR (in words)” value [6] read?
A: did not change the binding of NR to casein peptides
